Measurements taken from patent US7009045B2 (priority 2000, dated 2006).

Columns and labels:
Assay type in all cases: cell-based
[1] = test system: Candida famata regulatory mutants able to overproduce riboflavin; assay: Sensitivity to Co^+2 ions, solid Burkholder medium (Table 16); parameters: key: +++: strong growth; ++: weak growth; —: absence of growth
Protocol: (§1) The sensitivity of the regulatory mutants of the yeast C. famata which overproduce riboflavin in iron rich medium probably due to defects in genes regulating repression (repression mutants), to different ions of heavy metals was studied. For this, the analyzed strains were streaked on the YPD plates and then were replica-plated on Burkholder synthetic medium containing leucine (40 μg/ml). The C.famata mutants L20105-40-1-11, L20105-40-1-17, L20105-3-2-1, L20105-3-2-8 and L20105-3-2-12 (all contained leu2 marker) accumulated 80–100 μg riboflavin/ml. The mutants #75, 4-48, 2-5 produced much higher amounts of riboflavin (200–250 μg/ml) but were prototrophs for leucine synthesis. Strain #75 was characterized by retarded growth comparing with other mutants. The strains VKM Y-9 (wild type) and L20105 (leu2) were used as the control strains.

[2] = test system: Candida famata regulatory mutants able to overproduce riboflavin; assay: Sensitivity to copper ions, solid Burkholder medium (Table 12); parameters: key: +++: strong growth; ++: weak growth; +: very weak growth; —: absence of growth
Protocol: as §1
Mutants overproducing lower amounts of riboflavin appeared to be more sensitive to CuSO4 (0.15 mM) than that of the strains producing higher amounts of riboflavin (inhibitory concentration 0.5 mM) (Table 12).

[3] = test system: Candida famata regulatory mutants able to overproduce riboflavin; assay: Sensitivity to K2Cr2O7, solid Burkholder medium with 0.5% glycerol (Table 14)
Protocol: as §1

[4] = test system: Candida famata wild type and regulatory mutants able to overproduce riboflavin on iron-rich medium; assay: Sensitivity after electroporation to K2Cr2O7, Burkholder medium with 1% ethanol (Table 17); conditions: K2Cr2O7 15–50 μM
Text: The strategy for the cloning of the genes regulating derepression of riboflavin in C. famata was developed using regulatory mutants 2-5 and 4-48 which accumulate elevated amounts of riboflavin in the medium with high iron content. The method for positive selection of the transformants which, after transformation with C. famata gene library, would lose the ability to overproduce riboflavin in iron rich medium, was developed. For this, the difference in sensitivity to Cr^+6 ions (as K2Cr2O7) between C. famata wild strain VKM Y-9 and overproducers of riboflavin 2-5 and 4-48 after their electroporation with the C. famata gene library constructed on pCfARS1614, was studied.
Toxicity of Cr^+6 was studied on agar plates containing different carbon sources (sucrose, glycerol, ethanol). Before the electroporated cells were plated on ethanol and glycerol medium, the cells were washed 3 times with 10 fold volumes of 0.6 M KCl and the suspension volumes were adjusted with 0.6 M KCl to 100 μl. On each plate containing glycerol (0.5%) or ethanol (1%), 0.6 M KCl and different concentrations (10–200 uM) of K2Cr2O7, in a 30–60 μl suspension were spread. Where sucrose was used as a carbon source, this sugar was used at a 0.3M concentration, using it as both as a carbon source and osmotic stabilizer.

In the case of [Cl-].[Cl-].[Co+2] [CoCl2], the growth ([1]; #2-5, Co^+2 1.25 μg/ml) was “+++”, the growth ([1]; #2-5, Co^+2 2.5 μg/ml) was “++” and the growth ([1]; #2-5, Co^+2 5.0 μg/ml) was “—”. The growth ([1]; #2-5, Co^+2 6.25 μg/ml) was “—”, the growth ([1]; #2-5, Co^+2 7.5 μg/ml) was “—” and the growth ([1]; #2-5, Co^+2 8.75 μg/ml) was “—”. The growth ([1]; #2-5, Co^+2 10 μg/ml) was “—”, the growth ([1]; #2-5, Co^+2 11.25 μg/ml) was “—” and the growth ([1]; #2-5, Co^+2 12.5 μg/ml) was “—”. For the same compound, the growth ([1]; #4-48, Co^+2 1.25 μg/ml) was “+++”, the growth ([1]; #4-48, Co^+2 2.5 μg/ml) was “++” and the growth ([1]; #4-48, Co^+2 3.75 μg/ml) was “—”. For the same compound, the growth ([1]; #4-48, Co^+2 5.0 μg/ml) was “—”, the growth ([1]; #4-48, Co^+2 6.25 μg/ml) was “—” and the growth ([1]; #4-48, Co^+2 7.5 μg/ml) was “—”. The growth ([1]; #4-48, Co^+2 8.75 μg/ml) was “—”, the growth ([1]; #4-48, Co^+2 10 μg/ml) was “—” and the growth ([1]; #4-48, Co^+2 11.25 μg/ml) was “—”. For the same compound, the growth ([1]; #4-48, Co^+2 12.5 μg/ml) was “—”, the growth ([1]; #75, Co^+2 1.25 μg/ml) was “++” and the growth ([1]; #75, Co^+2 3.75 μg/ml) was “—”. For the same compound, the growth ([1]; #75, Co^+2 5.0 μg/ml) was “—”, the growth ([1]; #75, Co^+2 6.25 μg/ml) was “—” and the growth ([1]; #75, Co^+2 7.5 μg/ml) was “—”. For the same compound, the growth ([1]; #75, Co^+2 8.75 μg/ml) was “—”, the growth ([1]; #75, Co^+2 10 μg/ml) was “—” and the growth ([1]; #75, Co^+2 11.25 μg/ml) was “—”. The growth ([1]; #75, Co^+2 12.5 μg/ml) was “—”, the growth ([1]; L20105 (leu2), Co^+2 1.25 μg/ml) was “+++” and the growth ([1]; L20105 (leu2), Co^+2 2.5 μg/ml) was “+++”. The growth ([1]; L20105 (leu2), Co^+2 3.75 μg/ml) was “+++”, the growth ([1]; L20105 (leu2), Co^+2 5.0 μg/ml) was “+++” and the growth ([1]; L20105 (leu2), Co^+2 6.25 μg/ml) was “+++”. For the same compound, the growth ([1]; L20105 (leu2), Co^+2 7.5 μg/ml) was “+++”, the growth ([1]; L20105 (leu2), Co^+2 8.75 μg/ml) was “+++” and the growth ([1]; L20105 (leu2), Co^+2 10 μg/ml) was “+++”. For the same compound, the growth ([1]; L20105 (leu2), Co^+2 11.25 μg/ml) was “++”, the growth ([1]; L20105 (leu2), Co^+2 12.5 μg/ml) was “++” and the growth ([1]; L20105-3-2-1, Co^+2 1.25 μg/ml) was “+++”. The growth ([1]; L20105-3-2-1, Co^+2 2.5 μg/ml) was “++”, the growth ([1]; L20105-3-2-1, Co^+2 5.0 μg/ml) was “—” and the growth ([1]; L20105-3-2-1, Co^+2 6.25 μg/ml) was “—”. For the same compound, the growth ([1]; L20105-3-2-1, Co^+2 7.5 μg/ml) was “—”, the growth ([1]; L20105-3-2-1, Co^+2 8.75 μg/ml) was “—” and the growth ([1]; L20105-3-2-1, Co^+2 10 μg/ml) was “—”. The growth ([1]; L20105-3-2-1, Co^+2 11.25 μg/ml) was “—”, the growth ([1]; L20105-3-2-1, Co^+2 12.5 μg/ml) was “—” and the growth ([1]; L20105-3-2-8, Co^+2 1.25 μg/ml) was “+++”. The growth ([1]; L20105-3-2-8, Co^+2 2.5 μg/ml) was “++”, the growth ([1]; L20105-3-2-8, Co^+2 6.25 μg/ml) was “—” and the growth ([1]; L20105-3-2-8, Co^+2 7.5 μg/ml) was “—”. The growth ([1]; L20105-3-2-8, Co^+2 8.75 μg/ml) was “—”, the growth ([1]; L20105-3-2-8, Co^+2 10 μg/ml) was “—” and the growth ([1]; L20105-3-2-8, Co^+2 11.25 μg/ml) was “—”. The growth ([1]; L20105-3-2-8, Co^+2 12.5 μg/ml) was “—”, the growth ([1]; L20105-3-2-9, Co^+2 1.25 μg/ml) was “+++” and the growth ([1]; L20105-3-2-9, Co^+2 2.5 μg/ml) was “++”. The growth ([1]; L20105-3-2-9, Co^+2 5.0 μg/ml) was “—”, the growth ([1]; L20105-3-2-9, Co^+2 6.25 μg/ml) was “—” and the growth ([1]; L20105-3-2-9, Co^+2 7.5 μg/ml) was “—”. The growth ([1]; L20105-3-2-9, Co^+2 8.75 μg/ml) was “—”, the growth ([1]; L20105-3-2-9, Co^+2 10 μg/ml) was “—” and the growth ([1]; L20105-3-2-9, Co^+2 11.25 μg/ml) was “—”. The growth ([1]; L20105-3-2-9, Co^+2 12.5 μg/ml) was “—”, the growth ([1]; L20105-3-2-12, Co^+2 1.25 μg/ml) was “+++” and the growth ([1]; L20105-3-2-12, Co^+2 2.5 μg/ml) was “++”. For the same compound, the growth ([1]; L20105-3-2-12, Co^+2 6.25 μg/ml) was “—”, the growth ([1]; L20105-3-2-12, Co^+2 7.5 μg/ml) was “—” and the growth ([1]; L20105-3-2-12, Co^+2 8.75 μg/ml) was “—”. For the same compound, the growth ([1]; L20105-3-2-12, Co^+2 10 μg/ml) was “—”, the growth ([1]; L20105-3-2-12, Co^+2 11.25 μg/ml) was “—” and the growth ([1]; L20105-3-2-12, Co^+2 12.5 μg/ml) was “—”. For the same compound, the growth ([1]; L20105-40-1-11, Co^+2 1.25 μg/ml) was “+++”, the growth ([1]; L20105-40-1-11, Co^+2 2.5 μg/ml) was “++” and the growth ([1]; L20105-40-1-11, Co^+2 5.0 μg/ml) was “—”. For the same compound, the growth ([1]; L20105-40-1-11, Co^+2 6.25 μg/ml) was “—”, the growth ([1]; L20105-40-1-11, Co^+2 7.5 μg/ml) was “—” and the growth ([1]; L20105-40-1-11, Co^+2 8.75 μg/ml) was “—”. For the same compound, the growth ([1]; L20105-40-1-11, Co^+2 10 μg/ml) was “—”, the growth ([1]; L20105-40-1-11, Co^+2 11.25 μg/ml) was “—” and the growth ([1]; L20105-40-1-11, Co^+2 12.5 μg/ml) was “—”. The growth ([1]; VKM Y-9, Co^+2 1.25 μg/ml) was “+++”, the growth ([1]; VKM Y-9, Co^+2 2.5 μg/ml) was “+++” and the growth ([1]; VKM Y-9, Co^+2 3.75 μg/ml) was “+++”. The growth ([1]; VKM Y-9, Co^+2 5.0 μg/ml) was “+++”, the growth ([1]; VKM Y-9, Co^+2 6.25 μg/ml) was “+++” and the growth ([1]; VKM Y-9, Co^+2 7.5 μg/ml) was “+++”. For the same compound, the growth ([1]; VKM Y-9, Co^+2 8.75 μg/ml) was “+++”, the growth ([1]; VKM Y-9, Co^+2 10 μg/ml) was “+++” and the growth ([1]; VKM Y-9, Co^+2 11.25 μg/ml) was “+++”. For the same compound, the growth ([1]; VKM Y-9, Co^+2 12.5 μg/ml) was “+++”.
In the case of O=S(=O)([O-])[O-].[Cu+2] [CuSO4], the growth ([2]; #2-5, Cu^+2 0.45 mM) was “+”, the growth ([2]; #4-48, Cu^+2 0.45 mM) was “+” and the growth ([2]; #75, Cu^+2 0.45 mM) was “+”. The growth ([2]; L20105 (leu2), Cu^+2 0.6 mM) was “+”, the growth ([2]; L20105-3-2-4, Cu^+2 0.1 mM) was “+” and the growth ([2]; L20105-3-2-8, Cu^+2 0.1 mM) was “+”. For the same compound, the growth ([2]; L20105-3-2-12, Cu^+2 0.1 mM) was “+”.
[K+].[K+].[O]=[Cr](=[O])([O-])[O][Cr](=[O])(=[O])[O-] [K2Cr2O7] was tested, and the “concentration inhibiting growth of weaker overproducers” value [3] was 50 µM and the “growth of the wild-type strain” value [4] was “almost uninhibited”.
